Measured values published in patent publication US8703161B2, “Skin repair compositions comprising circadian gene activators and a synergistic combination of Sirt1 gene activators” (ELC Management, LLC, priority 2007, dated 2014).
Ends that are not written are not given here.

Test system: UVB-irradiated human keratinocytes
Assay: Survival of UVB-irradiated keratinocytes, MTS viability (Example 1)
Type: cell-based
Conditions: for decreased survival rate: 45 mJ/cm2 UV
Procedure: Orsirtine™ ((SEQ ID No. 8) G-L-Y-D-N-L-E) and resveratrol, […], were tested for their ability to improve survival of UVB-irradiated human keratinocytes.
Normal human keratinocytes were cultured in Epilife Medium with Human Keratinocyte Growth Supplement. The cells were sub-cultured into 96-well plates (Costar). Keratinocytes were pretreated with resveratrol (25 μM) and Orsirtine (1%, 3%) by themselves, and in a complex of resveratrol (25 μM) and Orsirtine™ (3%). Keratinocytes were treated with the undiluted complex and with dilutions of 1:2, 1:4 and 1:8 (complex: Epilife media).
Keratinocytes were incubated with these treatments overnight at 37° C.; 5% CO2. After 24 hours, the treatment was aspirated and keratinocytes were washed once in D-PBS. 100 μl of D-PBS was added for the irradiation. The cells were subjected to UVB irradiation at 0, 45, 90 and 135 mJ/cm^2 UVB. After the irradiation, D-PBS was removed. Keratinocytes were post treated appropriately and incubated overnight at 37° C.; 5% CO2. The next day, cells were assayed for viability, utilizing MTS reagent (CellTiter96, Promega). Absorbance readings were taken on the SpectraMax190 spectrophotometer (Molecular Devices) at 490 nm following an approximate two hour incubation at 37° C.; 5% CO2.

[1] = Orsirtine 3% alone, listed as Orsirtine ™

Row | Compound | decreased survival rate (just resveratrol (25 μM)) | Increased survival after 90 mJ/cm^2 UV (Resveratrol 25 μM alone) | Increased survival after 135 mJ/cm^2 UV (Resveratrol 25 μM alone) | decreased survivability (UVB of 90 mJ/cm^2, 25 μM Resveratrol by itself) | decreased survival rate (just Orsirtine 3%) | Increased survival after 90 mJ/cm^2 UV (Orsirtine 1% alone) | Increased survival after 135 mJ/cm^2 UV (Orsirtine 1% alone) | Increased survival after 90 mJ/cm^2 UV (Orsirtine 3% alone) | Increased survival after 135 mJ/cm^2 UV (Orsirtine 3% alone) | Increased survival after 90 mJ/cm^2 UV [1] | Increased survival after 135 mJ/cm^2 UV [1]
1 | Oc1ccc(/C=C\c2cc(O)cc(O)c2)cc1 [Resveratrol, 3,5,4′-trihydroxystilbene, reference compound] | 20% | −15% | 22% | 15% | – | – | – | – | – | – | –
2 | GLYDNLE [Orsirtine™, peptide G-L-Y-D-N-L-E, INCI Water (and) Glycerin (and) Oryza Sativa (Rice) Extract, from ISP Vincience] | – | – | – | – | 8% | −17% | 5% | 11% | 26% | 11% | 26%
